Measured values: patent US20260055079A1, “PHTHALAZINONE COMPOUNDS AS PARP7 INHIBITORS” (AZKARRA THERAPEUTICS, INC., priority 2022, published 2026)

Molecular target: His-GST-PARP7 (Homo sapiens (Human), UniProt Q7Z3E1)
Assay: PARP7 biochemical assay
Conditions: read-out: PARP7 IC50

Chain of His-GST-PARP7 (Q7Z3E1 whole entry): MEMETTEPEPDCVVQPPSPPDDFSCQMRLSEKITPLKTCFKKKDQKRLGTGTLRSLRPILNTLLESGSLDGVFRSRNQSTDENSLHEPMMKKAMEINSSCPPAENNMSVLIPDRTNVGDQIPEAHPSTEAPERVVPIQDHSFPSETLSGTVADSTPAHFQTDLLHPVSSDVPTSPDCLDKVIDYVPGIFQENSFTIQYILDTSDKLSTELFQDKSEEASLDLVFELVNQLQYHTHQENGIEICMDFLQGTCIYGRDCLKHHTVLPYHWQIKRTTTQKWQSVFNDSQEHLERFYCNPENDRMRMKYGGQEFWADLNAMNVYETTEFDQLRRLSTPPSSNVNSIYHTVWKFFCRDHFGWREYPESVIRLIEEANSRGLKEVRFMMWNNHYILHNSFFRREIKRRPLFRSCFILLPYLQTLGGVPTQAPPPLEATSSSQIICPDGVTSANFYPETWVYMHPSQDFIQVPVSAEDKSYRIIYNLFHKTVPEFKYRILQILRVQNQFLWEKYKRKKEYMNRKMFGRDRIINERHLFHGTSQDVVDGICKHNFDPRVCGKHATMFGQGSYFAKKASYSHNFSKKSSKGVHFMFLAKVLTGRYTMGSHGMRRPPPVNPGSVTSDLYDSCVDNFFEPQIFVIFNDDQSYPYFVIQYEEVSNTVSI

Row | Compound | IC50
1 | 4-(4-Fluoro-3-(4-(5-(trifluoromethyl)pyrimidin-2-yl)piperazine-1-carbonyl)benzyl)-6-(3,3,3-trifluoroprop-1-yn-1-yl)phthalazin-1(2H)-one [Example 42] | 500 to 2000 nM
2 | 6-(3-(5-((7-Cyclobutoxy-4-oxo-3,4-dihydrophthalazin-1-yl)methyl)-2-fluorobenzoyl)-3,8-diazabicyclo[3.2.1]octan-8-yl)nicotinonitrile [Example 99] | < 50 nM
3 | O=C(c1cc(Cc2n[nH]c(=O)c3ccc(OC4CCC4)cc23)ccc1F)N1C[C@@H]2CC[C@H]1CN2C(=O)C1CC1 (stereo in doubt) [Example 142, 6-Cyclobutoxy-4-(3-(5-(cyclopropanecarbonyl)-2,5-diazabicyclo[2.2.2]octane-2-carbonyl)-4-fluorobenzyl)phthalazin-1(2H)-one] | 100 to 500 nM
4 | N#Cc1ccc(N2C[C@H]3C[C@@H]2CN3C(=O)c2cccc(Cc3n[nH]c(=O)c4ccc(-c5cccnc5)cc34)c2)nc1 (stereo in doubt) [Example 184, 6-(5-(3-((4-Oxo-7-(pyridin-3-yl)-3,4-dihydrophthalazin-1-yl)methyl)benzoyl)-2,5-diazabicyclo[2.2.1]heptan-2-yl)nicotinonitrile] | 100 to 500 nM
5 | C/C(=C\C(F)(F)F)c1ccc2c(=O)[nH]nc(Cc3ccc(F)c(C(=O)N4CCN(c5ccc(C#N)cn5)CC4)c3)c2c1 [Example 32, (E)-6-(4-(2-fluoro-5-((4-oxo-7-(4,4,4-trifluorobut-2-en-2-yl)-3,4-dihydrophthalazin-1-yl)methyl)benzoyl)piperazin-1-yl)nicotinonitrile] | < 50 nM
6 | N#Cc1ccc(N2CCN(C(=O)c3cc(Cc4n[nH]c(=O)c5ccc(N6CC7(C6)CC(F)(F)C7)cc45)ccc3F)CC2)nc1 [Example 35, 6-(4-(5-((7-(6,6-Difluoro-2-azaspiro[3.3]heptan-2-yl)-4-oxo-3,4-dihydrophthalazin-1-yl)methyl)-2-fluorobenzoyl)piperazin-1-yl)nicotinonitrile] | 50 to 100 nM
7 | N#Cc1ccc(N2CCN(C(=O)c3cc(Cc4n[nH]c(=O)c5ccc(Oc6ccccn6)cc45)ccc3F)CC2)nc1 [Example 38, 6-(4-(2-Fluoro-5-((4-oxo-7-(pyridin-2-yloxy)-3,4-dihydrophthalazin-1-yl)methyl)benzoyl)piperazin-1-yl)nicotinonitrile] | < 50 nM
8 | N#Cc1ccc(N2CCN(C(=O)c3cc(Cc4n[nH]c(=O)c5ccc(Oc6ccc7ccccc7c6)cc45)ccc3F)CC2)nc1 [Example 39, 6-(4-(2-Fluoro-5-((7-(naphthalen-2-yloxy)-4-oxo-3,4-dihydrophthalazin-1-yl)methyl)benzoyl)piperazin-1-yl)nicotinonitrile] | 50 to 100 nM
9 | CC#Cc1ccc2c(=O)[nH]nc(Cc3ccc(F)c(C(=O)N4CCN(c5ncc(C(F)(F)F)cn5)CC4)c3)c2c1 [Example 48, 4-(4-Fluoro-3-(4-(5-(trifluoromethyl)pyrimidin-2-yl)piperazine-1-carbonyl)benzyl)-6-(prop-1-yn-1-yl)phthalazin-1(2H)-one] | 100 to 500 nM
10 | N#Cc1ccc(N2CCN(C(=O)c3cc(Cc4n[nH]c(=O)c5ccc(S(=O)(=O)C6CC(F)(F)C6)cc45)ccc3F)CC2)nc1 [Example 54, 6-(4-(5-((7-((3,3-Difluorocyclobutyl)sulfonyl)-4-oxo-3,4-dihydrophthalazin-1-yl)methyl)-2-fluorobenzoyl)piperazin-1-yl)nicotinonitrile] | 500 to 2000 nM
11 | CC#Cc1ccc2c(=O)[nH]nc(Cc3ccc(F)c(C(=O)N4CCN(c5cncc(C#N)n5)CC4)c3)c2c1 [Example 55, 6-(4-(2-Fluoro-5-((4-oxo-7-(prop-1-ynyl)-3,4-dihydrophthalazin-1-yl)methyl)benzoyl)piperazin-1-yl)pyrazine-2-carbonitrile] | 100 to 500 nM
12 | CC#Cc1ccc2c(=O)[nH]nc(Cc3ccc(F)c(C(=O)N4CCN(C(=O)CCC(F)(F)F)CC4)c3)c2c1 [Example 57, 4-(4-Fluoro-3-(4-(4,4,4-trifluorobutanoyl)piperazine-1-carbonyl)benzyl)-6-(prop-1-ynyl)phthalazin-1(2H)-one] | < 50 nM
13 | CC#Cc1ccc2c(=O)[nH]nc(Cc3ccc(F)c(C(=O)N4CCn5c(nnc5-c5ccccc5CC)C4)c3)c2c1 [Example 59, 4-(3-(3-(2-Ethylphenyl)-5,6,7,8-tetrahydro-[1,2,4]triazolo[4,3-a]pyrazine-7-carbonyl)-4-fluorobenzyl)-6-(prop-1-ynyl)phthalazin-1(2H)-one] | 100 to 500 nM
14 | CC#Cc1ccc2c(=O)[nH]nc(Cc3ccc(F)c(C(=O)N4CC5CCC(C4)N5c4ccc(C#N)cn4)c3)c2c1 [Example 64, 6-(3-(2-Fluoro-5-((4-oxo-7-(prop-1-ynyl)-3,4-dihydrophthalazin-1-yl)methyl)benzoyl)-3,8-diazabicyclo[3.2.1]octan-8-yl)nicotinonitrile] | < 50 nM
15 | CC#Cc1ccc2c(=O)[nH]nc(Cc3ccc(F)c(C(=O)N4C[C@@H]5C[C@H]4CN5c4ccc(C#N)cn4)c3)c2c1 [Example 68, 6-((1S,4S)-5-(2-fluoro-5-((4-oxo-7-(prop-1-ynyl)-3,4-dihydrophthalazin-1-yl)methyl)benzoyl)-2,5-diazabicyclo[2.2.1]heptan-2-yl)nicotinonitrile] | 500 to 2000 nM
16 | [2H]C([2H])(c1ccc(F)c(C(=O)N2CCN(c3ccc(C#N)cn3)CC2)c1)c1n[nH]c(=O)c2ccc(C#CC)cc12 [Example 73, 6-(4-(2-Fluoro-5-((4-oxo-7-(prop-1-yn-1-yl)-3,4-dihydrophthalazin-1-yl)methyl-d2)benzoyl)piperazin-1-yl)nicotinonitrile] | < 50 nM
17 | CC#Cc1ccc2c(=O)[nH]nc(Cc3ccc4c(c3)C(=O)N(CCN(CC)c3ccc(C#N)cn3)C4)c2c1 [Example 75, 6-(Ethyl(2-(1-oxo-6-((4-oxo-7-(prop-1-ynyl)-3,4-dihydrophthalazin-1-yl)methyl)isoindolin-2-yl)ethyl)amino)nicotinonitrile] | > 2000 nM
18 | CC#Cc1ccc2c(=O)[nH]nc(Cc3ccc(F)c(C#N)c3)c2c1 [Example 76, 2-Fluoro-5-((4-oxo-7-(prop-1-yn-1-yl)-3,4-dihydrophthalazin-1-yl)methyl)benzonitrile] | > 2000 nM
19 | CC#Cc1ccc2c(=O)[nH]nc(Cc3cc(C(=O)N4CCN(c5ccc(C#N)cn5)CC4)c(F)cc3F)c2c1 [Example 77, 6-(4-(2,4-Difluoro-5-((4-oxo-7-(prop-1-yn-1-yl)-3,4-dihydrophthalazin-1-yl)methyl)benzoyl)piperazin-1-yl)nicotinonitrile] | < 50 nM
20 | CC#Cc1ccc2c(=O)[nH]nc(Cc3ccc(F)c(C(NCCN(CC)c4ccc(C#N)cn4)C(F)(F)F)c3)c2c1 (stereo not shown) [Example 78, 6-(Ethyl(2-((2,2,2-trifluoro-1-(2-fluoro-5-((4-oxo-7-(prop-1-yn-1-yl)-3,4-dihydrophthalazin-1-yl)methyl)phenyl)ethyl)amino)ethyl)amino)nicotinonitrile] | > 2000 nM
21 | CC#Cc1ccc2c(=O)[nH]nc(Cc3ccc(F)c(C(=O)N4CCN(c5ncc(C)n5C)CC4)c3)c2c1 [Example 79, 4-(3-(4-(1,5-Dimethyl-1H-imidazol-2-yl)piperazine-1-carbonyl)-4-fluorobenzyl)-6-(prop-1-ynyl)phthalazin-1(2H)-one] | 100 to 500 nM
22 | COc1c(Oc2ccccc2)ccc2c(=O)[nH]nc(Cc3ccc(F)c(C(=O)N4CCN(c5ccc(C#N)cn5)CC4)c3)c12 [Example 89, 6-(4-(2-Fluoro-5-((8-methoxy-4-oxo-7-phenoxy-3,4-dihydrophthalazin-1-yl)methyl)benzoyl)piperazin-1-yl)nicotinonitrile] | 50 to 100 nM
